The values below are quoted from earlier work in patent US20110229902A1, “METHOD FOR DETERMINING THE […] OF FUNGI AND YEASTS, IN PARTICULAR OF A[…]” (STICHTING TER B[…] DE FARMACODYNAMIEK, priority 2008, published 2011).

Holding throughout (parameters): key: R = resistant; S = sensitive
Data set [1] relates to Aspergillus fumigatus cyp51A G54X. Conditions: A. fumigatus isolate with cyp51A mutation G54X.
For data set [2], the system named is Aspergillus fumigatus cyp51A G138C. Conditions: A. fumigatus isolate with cyp51A mutation G138C.
The subject of data set [3] is Aspergillus fumigatus cyp51A M220X. Conditions: A. fumigatus isolate with cyp51A mutation M220X.
Data set [4] concerns Aspergillus fumigatus cyp51A L98H + TR. The note with it: A. fumigatus isolate with cyp51A L98H + TR (tandem repeat in promoter).
In data set [5] the test system is Aspergillus fumigatus cyp51A G54W. The note with it: A. fumigatus isolate with cyp51A mutation G54W.

In the case of `C[C@@H](c1nc(-c2ccc(C#N)cc2)cs1)[C@](O)(Cn1cncn1)c1ccc(F)cc1F` [Ravuconazole], the “resistance status (resistant or sensitive)” value (shortened to “resistance status”) in data set [1] was “S”; in data set [2] it was “R”; in data set [3], “S”; in data set [4] it was “R”; in data set [5] it was “S”.
Turning to `C[C@@H](c1ncncc1F)[C@](O)(Cn1cncn1)c1ccc(F)cc1F` [Voriconazole], the “resistance status” value in data set [1] is reported as “S”; in data set [2], “R”; in data set [3] it was “S”; in data set [4] it was “R”; in data set [5] it was “S”.
Take `CC[C@@H]([C@H](C)O)n1ncn(-c2ccc(N3CCN(c4ccc(OC[C@@H]5CO[C@@](Cn6cncn6)(c6ccc(F)cc6F)C5)cc4)CC3)cc2)c1=O` [Posaconazole]: the “resistance status” value is on record as “S” in data set [1]; “S” in data set [2]; “S” in data set [3]; “S” in data set [4]; “R” in data set [5].
